Read-outs that look alike come from different tables or passages of the source.
Assays:
[1] = target: LuxR of Vibrio fischeri (Aliivibrio fischeri, UniProt P12746, DEL21-21/INS42T/N22A/N23Y); type: cell-based; details: for induction of luminescence (LuxR activation) compared to 2-AA: 50 μM, 20 h of incubation, FIG. 10
[2] = system: LuxR-regulated luminescence of Vibrio fischeri MJ-1; type: cell-based

Sequence of LuxR of Vibrio fischeri (P12746 with tags, fused parts or gaps DEL21-21/INS42T/N22A/N23Y): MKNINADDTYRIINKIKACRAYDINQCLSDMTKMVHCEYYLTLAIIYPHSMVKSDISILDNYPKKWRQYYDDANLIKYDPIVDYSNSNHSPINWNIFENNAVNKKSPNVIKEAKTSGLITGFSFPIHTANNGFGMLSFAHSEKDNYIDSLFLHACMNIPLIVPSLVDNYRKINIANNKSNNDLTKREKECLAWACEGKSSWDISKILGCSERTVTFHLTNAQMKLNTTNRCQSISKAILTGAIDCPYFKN

SMILES	induction of luminescence (LuxR activation) compared to 2-AA [1]	also measured
CC(=O)c1cccc(N)c1 [3-aminoacetophenone]	completely abolished the induction of luminescence	
O=C(C[N+](=O)[O-])c1ccccc1 [2-nitroacetophenone]	could also activate LuxR, but to a lesser extent than 2-AA	dose dependency of LuxR activation ([1]; 1-50 μM): no dose dependency; synergistic effects in the presence of AHL ([1]; 1-50 μM): no dose dependency or synergistic effects in the presence of AHL were observed
CCCC(=O)CC(=O)N[C@H]1CCOC1=O [3-oxo-C6-HSL]		affinity towards LuxR relative to 2-AA ([1]; as apparent from FIGS. 4 through 9): approximately three orders of magnitude higher; luminescence of V. fischeri MJ-1 ([2]; 10 nM, FIG. 6): significant increase; luminescence of V. fischeri MJ-1 ([2]; two repeats of the experiment (data not shown)): no luminescence was measured
Nc1ccccc1C=O [2-aminobenzaldehyde]	completely abolished the induction of luminescence	
CC(=O)c1ccccc1 [acetophenone]	completely abolished the induction of luminescence	
CC(=O)c1ccc(N)cc1 [4-aminoacetophenone]	completely abolished the induction of luminescence	
COC(=O)c1ccccc1N [methyl anthranilate]	completely abolished the induction of luminescence	
Nc1ccccc1C(=O)O [anthranilic acid]	completely abolished the induction of luminescence	

Reference: patent US20170067894A1 (priority 2014, published 2017)
